Experimental data published in patent US20260193293A1, “PEPTIDES CAPABLE OF INHIBITING PROTEIN-PROTEIN INTERACTIONS AT GABAB1A SUBUNIT AND USES THEREOF” (UNIVERSITY OF COPENHAGEN, priority 2022, published 2026).
Where two headings read alike, the source gives them in different places. Blank lines part the entries; values can stand above or below the compound they belong to. Non-standard residues stand in square brackets, D forms with d. Residues, ends and D or L forms follow the SMILES beside them. *: point of attachment. 1Nal = N[C@@H](Cc1cccc2ccccc12)C(=O)O; 2Nal = N[C@@H](Cc1ccc2ccccc2c1)C(=O)O; 3Pal = N[C@@H](Cc1cccnc1)C(=O)O; 4Pal = N[C@@H](Cc1ccncc1)C(=O)O; NMeD = CN[C@@H](CC(=O)O)C(=O)O; NMeS = CN[C@@H](CO)C(=O)O; Bn = c1ccc(C*)cc1; Sar = CNCC(=O)O

Molecular target: Sushi domains (SD1/2) protein
Test: Fluorescence polarization (FP) competition assay with AJAP-1probe, calculated Ki
Assay type: binding
Conditions: for fold increased affinity compared to Asp207Trp: relative to Asp207Trp mutant of APPWT
Outline: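 Ki values were derived from IC50s (sigmoidal fits, ≥ triplicate), with probe Kd obtained by saturation titration of SD1/2. Peptides displaced a 25 nM TAMRA-labelled probe; polarization read at 530/580 nm in 1% BSA-containing PBS, pH 7.4, room temperature.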

[1] = Table 16, ncAAs incorporated peptides, read-out: Ki (nM) mean ± SEM
[2] = purified peptides, read-out: Ki
[3] = Table 10, deep mutational scanning validation variants of APPWT, read-out: Ki (nM) mean ± SEM
[4] = Table 7, Ala-, D-amino acids and N-methylation scans of APPWT, read-out: Ki (nM) mean ± SEM
[5] = Table 4, truncation and elongation scans of APP epitope, read-out: Ki (nM) mean ± SEM

- Ki (Table 13, peptides for affinity maturation, read-out: Ki (nM) mean ± SEM): 36 ± 1 nM
Structure (SMILES): CC(=O)N[C@@H](CCC(=O)O)C(=O)N[C@@H](CC(=O)O)C(=O)N[C@@H](CC(=O)O)C(=O)N[C@@H](CO)C(=O)N[C@@H](Cc1c[nH]c2ccccc12)C(=O)N[C@H](C(=O)N[C@@H](Cc1c[nH]c2ccccc12)C(=O)N[C@@H](Cc1c[nH]c2ccccc12)C(=O)NCC(=O)N(C)CC(=O)N[C@@H](C)C(=O)N[C@@H](CC(=O)O)C(=O)N[C@H](C(=O)N[C@@H](CC(=O)O)C(N)=O)[C@@H](C)O)C(C)C (Ac-EDDSWVWWG[Sar]ADTD-NH2)

- Ki [1]: 28 ± 1 nM
- Ki [2]: 27.1 nM
- fold increased affinity compared to Asp207Trp: 4 fold
Structure (SMILES): CC(=O)N[C@@H](CCC(=O)O)C(=O)N[C@@H](CC(=O)O)C(=O)N[C@@H](CC(=O)O)C(=O)N[C@@H](CO)C(=O)N[C@@H](Cc1ccc(OCc2ccccc2)cc1)C(=O)N[C@H](C(=O)N[C@@H](Cc1c[nH]c2ccccc12)C(=O)N[C@@H](Cc1c[nH]c2ccccc12)C(=O)NCC(=O)NCC(=O)N[C@@H](C)C(=O)N[C@@H](CC(=O)O)C(=O)N[C@H](C(=O)N[C@@H](CC(=O)O)C(N)=O)[C@@H](C)O)C(C)C (Ac-EDDSY(Bn)VWWGGADTD-NH2)

- Ki [1]: 101 ± 4 nM
Structure (SMILES): COc1ccc(C[C@H](NC(=O)[C@H](CO)NC(=O)[C@H](CC(=O)O)NC(=O)[C@H](CC(=O)O)NC(=O)[C@H](CCC(=O)O)NC(C)=O)C(=O)N[C@H](C(=O)N[C@@H](Cc2c[nH]c3ccccc23)C(=O)N[C@@H](Cc2c[nH]c3ccccc23)C(=O)NCC(=O)NCC(=O)N[C@@H](C)C(=O)N[C@@H](CC(=O)O)C(=O)N[C@H](C(=O)N[C@@H](CC(=O)O)C(N)=O)[C@@H](C)O)C(C)C)cc1 (Ac-EDDSY(Me)VWWGGADTD-NH2)

- Ki [1]: 69 ± 3 nM
Structure (SMILES): CC(=O)N[C@@H](CCC(=O)O)C(=O)N[C@@H](CC(=O)O)C(=O)N[C@@H](CC(=O)O)C(=O)N[C@@H](CO)C(=O)N[C@@H](Cc1cccc2ccccc12)C(=O)N[C@H](C(=O)N[C@@H](Cc1c[nH]c2ccccc12)C(=O)N[C@@H](Cc1c[nH]c2ccccc12)C(=O)NCC(=O)NCC(=O)N[C@@H](C)C(=O)N[C@@H](CC(=O)O)C(=O)N[C@H](C(=O)N[C@@H](CC(=O)O)C(N)=O)[C@@H](C)O)C(C)C (Ac-EDDS[1Nal]VWWGGADTD-NH2)

- Ki [2]: 43 nM
- fold increased affinity compared to Asp207Trp: 2 fold
Structure (SMILES): CC(=O)N[C@@H](CCC(=O)O)C(=O)N[C@@H](CC(=O)O)C(=O)N[C@@H](CC(=O)O)C(=O)N[C@@H](CO)C(=O)N[C@@H](Cc1ccc2ccccc2c1)C(=O)N[C@H](C(=O)N[C@@H](Cc1c[nH]c2ccccc12)C(=O)N[C@@H](Cc1c[nH]c2ccccc12)C(=O)NCC(=O)NCC(=O)N[C@@H](C)C(=O)N[C@@H](CC(=O)O)C(=O)N[C@H](C(=O)N[C@@H](CC(=O)O)C(N)=O)[C@@H](C)O)C(C)C (Ac-EDDS[2Nal]VWWGGADTD-NH2)

- Ki [1]: 373 ± 7 nM
Structure (SMILES): CC(=O)N[C@@H](CCC(=O)O)C(=O)N[C@@H](CC(=O)O)C(=O)N[C@@H](CC(=O)O)C(=O)N[C@@H](CO)C(=O)N[C@@H](Cc1cccnc1)C(=O)N[C@H](C(=O)N[C@@H](Cc1c[nH]c2ccccc12)C(=O)N[C@@H](Cc1c[nH]c2ccccc12)C(=O)NCC(=O)NCC(=O)N[C@@H](C)C(=O)N[C@@H](CC(=O)O)C(=O)N[C@H](C(=O)N[C@@H](CC(=O)O)C(N)=O)[C@@H](C)O)C(C)C (Ac-EDDS[3Pal]VWWGGADTD-NH2)

- Ki [3]: 257 ± 4 nM
Structure (SMILES): CC(=O)N[C@@H](CCC(=O)O)C(=O)N[C@@H](CC(=O)O)C(=O)N[C@@H](CC(=O)O)C(=O)N[C@@H](Cc1c[nH]c2ccccc12)C(=O)N[C@@H](CC(=O)O)C(=O)N[C@H](C(=O)N[C@@H](Cc1c[nH]c2ccccc12)C(=O)N[C@@H](Cc1c[nH]c2ccccc12)C(=O)NCC(=O)NCC(=O)N[C@@H](C)C(=O)N[C@@H](CC(=O)O)C(=O)N[C@H](C(=O)N[C@@H](CC(=O)O)C(N)=O)[C@@H](C)O)C(C)C (Ac-EDDWDVWWGGADTD-NH2)

- Ki [5]: > 62500 nM
Structure (SMILES): CC(=O)N[C@@H](CCC(=O)O)C(=O)N[C@@H](CCC(=O)O)C(=O)N[C@@H](CC(=O)O)C(=O)N[C@@H](CC(=O)O)C(=O)N[C@@H](CO)C(=O)N[C@@H](CC(=O)O)C(=O)N[C@H](C(=O)N[C@@H](Cc1c[nH]c2ccccc12)C(N)=O)C(C)C (Ac-EEDDSDVW-NH2)

The remaining lines, values behind:

Structure (SMILES): CCOc1ccc(C[C@H](NC(=O)[C@H](CO)NC(=O)[C@H](CC(=O)O)NC(=O)[C@H](CC(=O)O)NC(=O)[C@H](CCC(=O)O)NC(C)=O)C(=O)N[C@H](C(=O)N[C@@H](Cc2c[nH]c3ccccc23)C(=O)N[C@@H](Cc2c[nH]c3ccccc23)C(=O)NCC(=O)NCC(=O)N[C@@H](C)C(=O)N[C@@H](CC(=O)O)C(=O)N[C@H](C(=O)N[C@@H](CC(=O)O)C(N)=O)[C@@H](C)O)C(C)C)cc1 (Ac-EDDSY(Et)VWWGGADTD-NH2)
- Ki [1]: 46 ± 2 nM
- Ki [2]: 46.3 nM
- fold increased affinity compared to Asp207Trp: 2 fold

Structure (SMILES): CC(=O)N[C@@H](CCC(=O)O)C(=O)N[C@@H](CC(=O)O)C(=O)N[C@@H](CC(=O)O)C(=O)N[C@@H](CO)C(=O)N[C@@H](Cc1ccc(O)cc1)C(=O)N[C@H](C(=O)N[C@@H](Cc1c[nH]c2ccccc12)C(=O)N[C@@H](Cc1c[nH]c2ccccc12)C(=O)NCC(=O)NCC(=O)N[C@@H](C)C(=O)N[C@@H](CC(=O)O)C(=O)N[C@H](C(=O)N[C@@H](CC(=O)O)C(N)=O)[C@@H](C)O)C(C)C (Ac-EDDSYVWWGGADTD-NH2)
- Ki [3]: 191 ± 10 nM

Structure (SMILES): CC(=O)N[C@@H](CCC(=O)O)C(=O)N[C@@H](CC(=O)O)C(=O)N[C@@H](CC(=O)O)C(=O)N[C@@H](CO)C(=O)N[C@@H](Cc1ccncc1)C(=O)N[C@H](C(=O)N[C@@H](Cc1c[nH]c2ccccc12)C(=O)N[C@@H](Cc1c[nH]c2ccccc12)C(=O)NCC(=O)NCC(=O)N[C@@H](C)C(=O)N[C@@H](CC(=O)O)C(=O)N[C@H](C(=O)N[C@@H](CC(=O)O)C(N)=O)[C@@H](C)O)C(C)C (Ac-EDDS[4Pal]VWWGGADTD-NH2)
- Ki [1]: 424 ± 13 nM

Structure (SMILES): CC(=O)N[C@@H](CCC(=O)O)C(=O)N[C@@H](CC(=O)O)C(=O)N[C@@H](CC(=O)O)C(=O)N[C@@H](CO)C(=O)N(C)[C@@H](CC(=O)O)C(=O)N[C@H](C(=O)N[C@@H](Cc1c[nH]c2ccccc12)C(=O)N[C@@H](Cc1c[nH]c2ccccc12)C(=O)NCC(=O)NCC(=O)N[C@@H](C)C(=O)N[C@@H](CC(=O)O)C(=O)N[C@H](C(=O)N[C@@H](CC(=O)O)C(N)=O)[C@@H](C)O)C(C)C (Ac-EDDS[NMeD]VWWGGADTD-NH2)
- Ki [4]: 3760 ± 64 nM

Structure (SMILES): CC(=O)N[C@@H](CCC(=O)O)C(=O)N[C@@H](CC(=O)O)C(=O)N[C@@H](CC(=O)O)C(=O)N(C)[C@@H](CO)C(=O)N[C@@H](CC(=O)O)C(=O)N[C@H](C(=O)N[C@@H](Cc1c[nH]c2ccccc12)C(=O)N[C@@H](Cc1c[nH]c2ccccc12)C(=O)NCC(=O)NCC(=O)N[C@@H](C)C(=O)N[C@@H](CC(=O)O)C(=O)N[C@H](C(=O)N[C@@H](CC(=O)O)C(N)=O)[C@@H](C)O)C(C)C (Ac-EDD[NMeS]DVWWGGADTD-NH2)
- Ki [4]: 1670 ± 32 nM

Structure (SMILES): CC(=O)N[C@@H](CCC(=O)O)C(=O)N[C@@H](CC(=O)O)C(=O)N(C)[C@@H](CC(=O)O)C(=O)N[C@@H](CO)C(=O)N[C@@H](CC(=O)O)C(=O)N[C@H](C(=O)N[C@@H](Cc1c[nH]c2ccccc12)C(=O)N[C@@H](Cc1c[nH]c2ccccc12)C(=O)NCC(=O)NCC(=O)N[C@@H](C)C(=O)N[C@@H](CC(=O)O)C(=O)N[C@H](C(=O)N[C@@H](CC(=O)O)C(N)=O)[C@@H](C)O)C(C)C (Ac-ED[NMeD]SDVWWGGADTD-NH2)
- Ki [4]: 671 ± 27 nM

Structure (SMILES): CC(=O)N[C@@H](CCC(=O)O)C(=O)N[C@@H](CCC(=O)O)C(=O)N[C@@H](CC(=O)O)C(=O)N[C@@H](CC(=O)O)C(=O)N[C@@H](CO)C(=O)N[C@@H](CC(=O)O)C(=O)N[C@H](C(=O)N[C@@H](Cc1c[nH]c2ccccc12)C(=O)N[C@@H](Cc1c[nH]c2ccccc12)C(N)=O)C(C)C (Ac-EEDDSDVWW-NH2)
- Ki [5]: 1786 ± 16 nM
